Experimental data published in publication PMC6270837, “Preparation and Biological Properties of Ring-Substituted Naphthalene-1-Carboxanilides” (Molecules, 2014).
Entries after “also recorded” stand apart in the source; their conditions may differ. Where two headings read alike, the source gives them in different places.

Key:
[1] = Lipophilicity determination by RP-HPLC (capacity factor, log k); type: physicochemical; details: end-capped C18, isocratic MeOH 60%/H2O 40%
Procedure: Lipophilicity is a property that has a major effect on bioavailability, biotransformation as well as pharmacological activity, because drugs cross biological membranes through passive transport, which strongly depends on their lipophilicity. Lipophilicity of the studied compounds was determined by RP‑HPLC as capacity factor logarithm (log k). The procedure was performed under isocratic conditions with methanol as an organic modifier in the mobile phase using an end-capped non-polar C18 stationary RP column. The results of ring-substituted naphthalene-1-carboxanilides 1–8c are shown in Table 1 and illustrated in Figure 1. […] Lipophilicity was also calculated as log P using ACD/Percepta ver. 2012 (Advanced Chemistry Development, Inc., Toronto, ON, Canada).
A HPLC system Agilent 1200 equipped with DAD detector (Agilent, USA) was used. A chromatographic column Symmetry® C18 5 μm, 4.6 × 250 mm, Part No. WAT054275 (Waters Corp., Milford, MA, USA) was used. The HPLC separation process was monitored and evaluated by EZChrom Elite software ver. 3.3.2 (Agilent, USA). Isocratic elution by a mixture of MeOH p.a. (60%) and H2O-HPLC Mili-Q grade (40%) as a mobile phase was used. The total flow of the column was 1.0 mL/min, injection 20 μL, column temperature 40 °C, and sample temperature 10 °C. The detection wavelength 210 nm was chosen. The KI methanolic solution was used for the dead time (tD) determination. Retention times (tR) were measured in minutes. The capacity factors k were calculated according to formula k = (tR − tD)/tD, where tR is the retention time of the solute, whereas tD denotes the dead time obtained using an unretained analyte. Log k, calculated from the capacity factor k, is used as the lipophilicity index converted to log P scale.

[2] = tested on: Mycobacterium avium subsp. paratuberculosis CIT03; assay: In vitro antimycobacterial evaluation (MIC/IC90, alamarBlue); type: cell-based; details: for antimycobacterial activity relative to ciprofloxacin / antimycobacterial activity relative to rifampicin: M. avium subsp. paratuberculosis, comparison of MICs; for MIC: Mycobacterium avium
Procedure: The MIC/IC90 value is routinely and widely used in bacterial assays and is a standard detection limit according to the Clinical and Laboratory Standards Institute.
A well-characterized clinical isolate of Mycobacterium avium subsp. paratuberculosis (CIT03) was grown in Middlebrook broth (MB), supplemented with Oleic-Albumin-Dextrose-Catalase supplement (OADC, Becton, Dickinson and Comp., Franklin Lakes, NJ, USA) and mycobactin J (2 µg/mL). Identification of this isolate was performed using biochemical and molecular protocols. At log phase growth, a culture sample (10 mL) was centrifuged at 15,000 rpm/20 min using a bench top centrifuge (Model CR 4-12, Jouan Inc., Winchester, VA, USA). Following removal of the supernatant, the pellet was washed in fresh Middlebrook 7H9GC broth and re-suspended in fresh supplemented MB (10 mL). The turbidity was adjusted to match McFarland standard No. 1 (3 × 10^8 cfu) with MB broth. A further 1:20 dilution of the culture was then performed in MB broth. The antimicrobial susceptibility of the mycobacterial species was investigated in a 96-well plate format. In these experiments, sterile deionized water (300 µL) was added to all outer-perimeter wells of the plates to minimize evaporation of the medium in the test wells during incubation. Each evaluated compound (100 µL) was incubated with the mycobacterial species (100 µL). Dilutions of each compound were prepared in duplicate. For all synthesized compounds, final concentrations ranged from 1,000 µg/mL to 8 µg/mL. All compounds were prepared in DMSO and subsequent dilutions were made in supplemented MB. The plates were sealed with parafilm and incubated at 37 °C for 11 days.
Following incubation, a 10% addition of alamarBlue (AbD Serotec, Kidlington, UK) was mixed into each well and readings at 570 nm and 600 nm were taken, initially for background subtraction and subsequently after 24 h re-incubation. […] For non-interfering compounds, a blue colour in the well was interpreted as an absence of growth and a pink colour was scored as growth. Furthermore percent reduction of alamarBlue was calculated to generate quantitative data on cell viability during exposure to antimycobacterial compounds over a period of 5 days. The formula used to determine percent reduction of alamarBlue has been standardized for colorimetric analysis by Abd Serotec.
The MIC value is routinely and widely used in bacterial assays and is a standard detection limit according to the Clinical and Laboratory Standards Institute.

[3] = tested on: human monocytic leukemia THP-1 cell line; assay: In vitro cytotoxicity assay (LDH); details: for LD50: human, 24 h; for lethal effect / toxicity on THP-1 cells: treatment with 30 μmol/L
Procedure: Human monocytic leukemia THP-1 cells were obtained from the European Collection of Cell Cultures (ECACC, Salisbury, UK; Methods of characterization: DNA Fingerprinting (Multilocus probes) and isoenzyme analysis). These cells were routinely cultured in RPMI 1640 (Lonza, Verviers, Belgium) medium supplemented with 10% fetal bovine serum (FBS, Sigma-Aldrich, St. Louis, MO, USA), 2% L-glutamine, 1% penicillin and streptomycin (Lonza) at 37 °C with 5% CO2. Cells were passaged at approximately one-week intervals. Cells were routinely tested for the absence of mycoplasma (Hoechst 33258 staining method). The tested compounds were dissolved in DMSO (Sigma-Aldrich) and added in five increasing concentrations to the cell suspension in the culture medium. The maximum concentration of DMSO in the assays never exceeded 0.1%. Subsequently, the cells were incubated for 24 h at 37 °C with 5% CO2 to various compound concentrations ranging from […] in RPMI 1640 medium. Cell toxicity was determined using a Cytotoxicity Detection Kit^PLUS Lactate dehydrogenase (LDH) assay kit (Roche Diagnostics, Mannheim, Germany) according to the manufacturer’s instructions, as described previously. For LDH assays, cells were seeded into 96-well plates (5 × 10^4 cells/well in 100 μL culture medium) in triplicate in serum-free RPMI 1640 medium, and measurements at 492 nm wavelength (Synergy 2 Multi-Mode Microplate Reader, BioTek, Winooski, VT, USA) were taken 24 h after the treatment with tested compounds. The median lethal dose values, LD50, were deduced through the production of a dose-response curve. All data were evaluated using GraphPad Prism 5.00 software (GraphPad Software, San Diego, CA, USA).
LDH Test Principle: The LDH activity is determined by a coupled enzymatic reaction, whereby the tetrazolium salt INT is reduced to formazan. An increase in the amount of dead or plasma membrane damaged cells results in an increase of LDH enzyme activity in the culture supernatant. This increase in the amount of enzyme activity in the supernatant directly correlates to the amount of formazan formed during a limited time period.

[4] = physchem; details: aqueous buffer, kinetic from dmso stock
[5] = tested on: M. avium subsp. paratuberculosis; assay: MTT assay on mycobacteria; type: cell-based, Mycobacterium avium subsp. paratuberculosis; details: lowest tested concentration 8 µg/mL (ca. 30 µmol/L), four hours of incubation
Procedure: Additionally, a standard MTT assay was performed on these same compounds. The MTT assay is a well-characterized method of assessing cell growth through measurement of respiration.
For the MTT assay, the same 96-well plate set up and incubation conditions listed above were used. After the incubation period, a 10% addition of MTT reagent was mixed into each well and incubated at 37 °C for 4 h. The reagent and media were then aspirated from the wells to which 50 µL DMSO was then added and plates were read at 550 nm.

[6] = tested on: photosynthetic electron transport (PET) in isolated spinach chloroplasts; assay: Inhibition of photosynthetic electron transport (PET) in isolated spinach chloroplasts; type: biochemical, Spinacia oleracea L.; details: DCPIP photoreduction
Procedure: The PET-inhibiting activity was expressed by IC50 value, i.e., compound concentration in mol/L causing 50% inhibition of PET.
Chloroplasts were prepared from spinach (Spinacia oleracea L.) according to Masarovicova and Kralova. The inhibition of photosynthetic electron transport (PET) in isolated spinach chloroplasts was determined spectrophotometrically (Genesys 6, Thermo Scientific, USA), using an artificial electron acceptor 2,6-dichlorophenol-indophenol (DCIPP) according to Kralova et al., and the rate of photosynthetic electron transport was monitored as a photoreduction of DCPIP. The measurements were carried out in phosphate buffer (0.02 mol/L, pH 7.2) containing sucrose (0.4 mol/L), MgCl2 (0.005 mol/L) and NaCl (0.015 mol/L). The chlorophyll content was 30 mg/L in these experiments and the samples were irradiated (~100 W/m^2 with 10 cm distance) with a halogen lamp (250 W) using a 4 cm water filter to prevent warming of the samples (suspension temperature 22 °C). The studied compounds were dissolved in DMSO due to their limited water solubility. […] The inhibitory efficiency of the studied compounds was expressed by IC50 values, i.e., by molar concentration of the compounds causing 50% decrease in the oxygen evolution rate relative to the untreated control.

[7] = tested on: human monocytic leukemia THP-1 cell line; details: THP-1 cells; assessed in this line formerly; cited from earlier work
[8] = 264 h, clinical isolate CIT03, 11 days at 37 °C, alamarBlue, MIC = 90% or greater reduction of growth, read-out: MAP MIC/IC90
[9] = clinical isolate CIT03, read-out: MIC
[10] = clinical isolate CIT03, 11 days at 37 °C, alamarBlue, MIC = 90% or greater reduction of growth

SMILES	log k [1]	antimycobacterial activity relative to ciprofloxacin [2]	antimycobacterial activity relative to rifampicin [2]	MIC [2, 8] [µM]	LD50 [3] [µmol/L]	lethal effect / toxicity on THP-1 cells [3]	solubility [4] [µM]	MIC [2, 9] [µg/mL]	MAP MIC/IC90 [2, 10] [µM]	reduction in activity (MTT) [5]	IC50 [6] [µM]	LD50 [7] [µmol/L]
COc1ccccc1NC(=O)c1cccc2ccccc12 [Compound 2a, N-(2-Methoxyphenyl)naphthalene-1-carboxamide]	0.8013	three-fold higher	two-fold higher	54	>30	did not lead to significant lethal effect; also recorded: insignificant toxicity	≤ 30					
COc1cccc(NC(=O)c2cccc3ccccc23)c1 [Compound 2b, N-(3-Methoxyphenyl)naphthalene-1-carboxamide]	0.6087	three-fold higher	two-fold higher	54	>30	did not lead to significant lethal effect; also recorded: insignificant toxicity	≤ 30	15	54	more than 80%		
Cc1cccc(NC(=O)c2cccc3ccccc23)c1 [Compound 3b, N-(3-Methylphenyl)naphthalene-1-carboxamide]	0.7624	three-fold higher	two-fold higher	57	>30	did not lead to significant lethal effect; also recorded: insignificant toxicity	≤ 30				136	
O=C(Nc1cccc(F)c1)c1cccc2ccccc12 [Compound 4b, N-(3-Fluorophenyl)naphthalene-1-carboxamide]	0.7204	three-fold higher	two-fold higher	57	>30	did not lead to significant lethal effect; also recorded: insignificant toxicity	≤ 30	15	57		131	
CC[C@@]1(O)C(=O)OCc2c1cc1n(c2=O)Cc2cc3ccccc3nc2-1 [camptothecin]												0.16 ± 0.07
